# Reference: US20240166624A1, “PPARG INVERSE AGONISTS AND USES THEREOF” (Flare Therapeutics Inc., priority 2021, published 2024)
# What was measured:
# [1] = target: T1, PPARG/RXRA LBD heterodimer (Homo sapiens, UniProt P37231); test: PPARγ-MED1 blockade assay (TR-FRET, biotinylated MED1 LxxLL peptide); format: biochemical; details: WT PPARG LBD/WT RXRA LBD, 80 nM Rosiglitazone, 3 hours
# T1 construct: His-TEV-Q203-Y477; Uniprot ID P37231-2; made in house; host or cells: E. coli
# T1 sequence (P37231 203-477 isoform P37231-2): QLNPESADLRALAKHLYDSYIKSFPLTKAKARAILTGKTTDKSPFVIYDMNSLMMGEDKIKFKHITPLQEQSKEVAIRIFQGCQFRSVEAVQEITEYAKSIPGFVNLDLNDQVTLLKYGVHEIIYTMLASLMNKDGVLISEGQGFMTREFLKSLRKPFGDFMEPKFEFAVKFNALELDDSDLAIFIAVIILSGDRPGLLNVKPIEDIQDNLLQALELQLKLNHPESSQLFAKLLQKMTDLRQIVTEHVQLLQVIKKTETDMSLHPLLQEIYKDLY
# T1 sequence (P19793 228-462 partner limits assumed): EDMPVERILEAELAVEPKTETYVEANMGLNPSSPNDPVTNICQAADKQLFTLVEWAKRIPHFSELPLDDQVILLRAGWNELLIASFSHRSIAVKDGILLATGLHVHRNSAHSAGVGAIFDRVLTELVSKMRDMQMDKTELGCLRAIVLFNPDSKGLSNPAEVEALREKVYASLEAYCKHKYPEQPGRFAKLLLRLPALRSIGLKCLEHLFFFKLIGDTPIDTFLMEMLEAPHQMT
# Description: PPARγ-MED1 Blockade Assay:
# Compound potency (IC50) and maximal extent of MED1 repulsion to PPARG were assessed a TR-FRET binding assay measuring association of a biotinylated MED1 LxxLL peptide (Biotin-[…]-amide) to PPARG/RXRA LBD heterodimer. Specifically, a 20 microliters of TR-FRET master mix consisting of 2 nM WT PPARG LBD (E. coli expressed, His-TEV-Q203-Y477; Uniprot ID P37231-2), 2 nM WT RXRA LBD (E. coli expressed, Flag-TEV-E228-T462; […]. Mixtures were incubated for 3 hours and read in an EnVision plate reader (Perkin Elmer) with Ex/Em 615/665. To determine the potency (IC50) and extent of MED1 repulsion, TR-FRET ratios were normalized to the average ratio of DMSO control wells (0%) and to the average minimum ratio for positive control compound (GW9662 (2-chloro-5-nitrobenzanilide); defined as 100%) in CDD Vault and analyzed using the Levenberg-Marquardt algorithm.
# [2] = tested on: ANGPTL4, a PPARG target gene, in HT1197 (RXRA S427F mutation) cells; test: Bladder cancer pharmacodynamic assay, HT1197 cell assay (qPCR of ANGPTL4); format: cell-based; details: Homo sapiens, 24 hours, 100 nM compound, relative to DMSO control
# Description: Bladder Cancer Pharmacodynamic Assay
# 5637 (PPARG amplified) and HT1197 (RXRA S427F mutation) cells were used for assessment of modulation of PPARG target genes using quantitative PCR. Cells were treated for 24 hours with PPARG inverse agonists prior to analysis of FABP4 (IDT, Cat: Hs.PT 58.20106818) and ANGPTL4 (IDT, Cat: Hs.PT 58.25480012) expression, with expression of the housekeeping gene TBP (IDT, Cat: Hs.PT 58v.39858774) used to normalize expression across samples. Quantitative PCR was performed using an ABI QuantStudio 7 Flex Reaction system. Data were analyzed and reported relative to DMSO control using the comparative Ct method (ΔΔCt).
# [3] = target: T2, PPARG/RXRA LBD heterodimer (Homo sapiens, UniProt P37231); test: PPARγ-NCOR1 recruitment assay (TR-FRET, biotinylated NCOR1 ID2 peptide); format: biochemical; details: 80 nM Rosiglitazone, 3 hours, read-out: PPARG-NCOR recruitment assay EC50
# T2 construct: His-TEV-Q203-Y477; Uniprot ID P37231-2; made in house; host or cells: E. coli
# Description: PPARγ-NCOR1 Recruitment Assay:
# Compound potency (EC50) and maximal extent of NCOR1 recruitment to PPARG were assessed a TR-FRET binding assay measuring association of a biotinylated NCOR1 ID2 peptide (Biotin-[…]-amide) to PPARG/RXRA LBD heterodimer. Specifically, a 20 microliters of TR-FRET master mix consisting of 2 nM WT PPARG LBD (E. coli expressed, His-TEV-Q203-Y477; Uniprot ID P37231-2), 2 nM WT RXRA LBD or mutant S427F RXRA LBD (E. coli expressed, Flag-TEV-E228-T462; […]. Mixtures were incubated for 3 hours and read in an EnVision plate reader (Perkin Elmer) with Ex/Em 615/665. To determine the potency (EC50) and extent of NCOR1 recruitment, TR-FRET ratios were normalized to the average ratio of DMSO control wells (0%) and to the average maximum ratio for positive control compound (T0070907 (2-chloro-5-nitro-N-4-pyridinyl-benzamide); defined as 100%) in CDD Vault and analyzed using the Levenberg-Marquardt algorithm.
# T2 sequence (O75376 2251-2273 partner, one chain of several): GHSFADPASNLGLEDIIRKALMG
Structure (SMILES),EC50 [1] [nM],inhibition at 0.1 µM [2] [%],EC50 [3] [nM]
"Cc1c(F)cc(F)c2c(=O)cc(-c3cc(C#N)ccc3Cl)[nH]c12 [Example 28, 4-chloro-3-(5,7-difluoro-8-methyl-4-oxo-1,4-dihydroquinolin-2-yl)benzonitrile]",100 to 1000,0,> 10000
"N#Cc1ccc(Cl)c(-c2cc(=O)c3c(F)c(-n4ccnc4)c(F)cc3[nH]2)c1 [Example 29, 4-chloro-3-(5,7-difluoro-6-(1H-imidazol-1-yl)-4-oxo-1,4-dihydroquinolin-2-yl)benzonitrile]",1000 to 10000,38,1000 to 10000
"Cc1cn(-c2c(F)cc3[nH]c(-c4cc(C#N)ccc4Cl)cc(=O)c3c2F)cn1 [Example 30, 4-chloro-3-(5,7-difluoro-6-(4-methyl-1H-imidazol-1-yl)-4-oxo-1,4-dihydroquinolin-2-yl)benzonitrile]",100 to 1000,39,100 to 1000
"N#Cc1ccc(Cl)c(-c2cc(=O)c3ccc(Cl)cc3[nH]2)c1 [Example 31, 4-chloro-3-(7-chloro-4-oxo-1,4-dihydroquinolin-2-yl)benzonitrile]",100 to 1000,90,100 to 1000
"N#Cc1ccc(Cl)c(-c2cc(=O)c3c(F)c(C(F)(F)F)c(F)cc3[nH]2)c1 [Example 32, 4-chloro-3-(5,7-difluoro-4-oxo-6-(trifluoromethyl)-1,4-dihydroquinolin-2-yl)benzonitrile]",100 to 1000,31,100 to 1000
"COc1c(F)cc2[nH]c(-c3cc(C#N)ccc3Cl)cc(=O)c2c1F [Example 34, 4-chloro-3-(5,7-difluoro-6-methoxy-4-oxo-1,4-dihydroquinolin-2-yl)benzonitrile]",100 to 1000,79,100 to 1000
"N#Cc1ccc(-c2c(F)cc3[nH]c(-c4cc(C#N)ccc4Cl)cc(=O)c3c2F)cc1 [Example 35, 4-chloro-3-(6-(4-cyanophenyl)-5,7-difluoro-4-oxo-1,4-dihydroquinolin-2-yl)benzonitrile]",100 to 1000,54,100 to 1000
"N#Cc1ccc(Cl)c(-c2cc(=O)c3c(F)c(-c4ccc(C(F)F)cc4)c(F)cc3[nH]2)c1 [Example 36, 4-chloro-3-(6-(4-(difluoromethyl)phenyl)-5,7-difluoro-4-oxo-1,4-dihydroquinolin-2-yl)benzonitrile]",10 to 100,65,10 to 100
"N#Cc1ccc(Cl)c(-c2cc(=O)c3c(F)c(-c4ccc(C(F)(F)F)nc4)c(F)cc3[nH]2)c1 [Example 37, 4-chloro-3-(5,7-difluoro-4-oxo-6-(6-(trifluoromethyl)pyridin-3-yl)-1,4-dihydroquinolin-2-yl)benzonitrile]",100 to 1000,87,100 to 1000
"N#Cc1ccc(Cl)c(-c2cc(=O)c3c(F)c(-c4cnn(C(F)F)c4)c(F)cc3[nH]2)c1 [Example 38, 4-chloro-3-(6-(1-(difluoromethyl)-1H-pyrazol-4-yl)-5,7-difluoro-4-oxo-1,4-dihydroquinolin-2-yl)benzonitrile]",100 to 1000,80,100 to 1000
"CS(=O)(=O)c1ccc(-c2c(F)cc3[nH]c(-c4cc(C#N)ccc4Cl)cc(=O)c3c2F)cc1 [Example 39, 4-chloro-3-(5,7-difluoro-6-(4-(methylsulfonyl)phenyl)-4-oxo-1,4-dihydroquinolin-2-yl)benzonitrile]",100 to 1000,33,100 to 1000
"Cc1cc(-c2c(F)cc3[nH]c(-c4cc(C#N)ccc4Cl)cc(=O)c3c2F)ccn1 [Example 40, 4-chloro-3-(5,7-difluoro-6-(2-methylpyridin-4-yl)-4-oxo-1,4-dihydroquinolin-2-yl)benzonitrile]",100 to 1000,72,100 to 1000
"N#Cc1cccc(-c2c(F)cc3[nH]c(-c4cc(C#N)ccc4Cl)cc(=O)c3c2F)c1 [Example 41, 4-chloro-3-(6-(3-cyanophenyl)-5,7-difluoro-4-oxo-1,4-dihydroquinolin-2-yl)benzonitrile]",100 to 1000,72,10 to 100
"Cc1ncc(-c2c(F)cc3[nH]c(-c4cc(C#N)ccc4Cl)cc(=O)c3c2F)cn1 [Example 42, 4-chloro-3-(5,7-difluoro-6-(2-methylpyrimidin-5-yl)-4-oxo-1,4-dihydroquinolin-2-yl)benzonitrile]",100 to 1000,74,100 to 1000
"Cc1cc(-c2c(F)cc3[nH]c(-c4cc(C#N)ccc4Cl)cc(=O)c3c2F)cc(C)n1 [Example 43, 4-chloro-3-(6-(2,6-dimethylpyridin-4-yl)-5,7-difluoro-4-oxo-1,4-dihydroquinolin-2-yl)benzonitrile]",100 to 1000,75,100 to 1000
"Cn1cc(-c2c(F)cc3[nH]c(-c4cc(C#N)ccc4Cl)cc(=O)c3c2F)cn1 [Example 44, 4-chloro-3-(5,7-difluoro-6-(1-methyl-1H-pyrazol-4-yl)-4-oxo-1,4-dihydroquinolin-2-yl)benzonitrile]",100 to 1000,75,100 to 1000
"N#Cc1ccc(Cl)c(-c2cc(=O)c3c(F)c(C4COC4)c(F)cc3[nH]2)c1 [Example 45, 4-chloro-3-(5,7-difluoro-6-(oxetan-3-yl)-4-oxo-1,4-dihydroquinolin-2-yl)benzonitrile]",100 to 1000,66,100 to 1000
"Cc1ccc(-c2c(F)cc3[nH]c(-c4cc(C#N)ccc4Cl)cc(=O)c3c2F)cn1 [Example 46, 4-chloro-3-(5,7-difluoro-6-(6-methylpyridin-3-yl)-4-oxo-1,4-dihydroquinolin-2-yl)benzonitrile]",100 to 1000,80,100 to 1000
"Cn1ccc(-c2c(F)cc3[nH]c(-c4cc(C#N)ccc4Cl)cc(=O)c3c2F)n1 [Example 47, 4-chloro-3-(5,7-difluoro-6-(1-methyl-1H-pyrazol-3-yl)-4-oxo-1,4-dihydroquinolin-2-yl)benzonitrile]",100 to 1000,66,100 to 1000
"CC(C)(O)Cn1cc(-c2c(F)cc3[nH]c(-c4cc(C#N)ccc4Cl)cc(=O)c3c2F)cn1 [Example 48, 4-chloro-3-(5,7-difluoro-6-(1-(2-hydroxy-2-methylpropyl)-1H-pyrazol-4-yl)-4-oxo-1,4-dihydroquinolin-2-yl)benzonitrile]",1000 to 10000,47,1000 to 10000
"N#Cc1ccc(Cl)c(-c2cc(=O)c3c(F)c(-c4ccncc4F)c(F)cc3[nH]2)c1 [Example 49, 4-chloro-3-(5,7-difluoro-6-(3-fluoropyridin-4-yl)-4-oxo-1,4-dihydroquinolin-2-yl)benzonitrile]",100 to 1000,52,100 to 1000
